This note sets out measurements from article PMC6934184, “Selective DNA-PKcs inhibition extends the therapeutic index of localized radiotherapy and chemotherapy” (The Journal of Clinical Investigation, 2019).

The target in the assay is T1, AMPK A2/B1/G1 (Homo sapiens, UniProt P54646).
T1 construct: purchased Thermo Fisher Scientific (Life Technologies) SelectScreen
As to the kind of experiment: SelectScreen Z'LYTE. In kind it is biochemical. In outline: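 NU5455 was profiled across the SelectScreen Broad panel of kinase activity and binding assays. Z'LYTE reactions such as CSF1R ran at apparent Km ATP, while the Adapta CAMK1 assay used ATP listed as 10. Values are given as percent.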

T1 sequence (P54646 whole entry): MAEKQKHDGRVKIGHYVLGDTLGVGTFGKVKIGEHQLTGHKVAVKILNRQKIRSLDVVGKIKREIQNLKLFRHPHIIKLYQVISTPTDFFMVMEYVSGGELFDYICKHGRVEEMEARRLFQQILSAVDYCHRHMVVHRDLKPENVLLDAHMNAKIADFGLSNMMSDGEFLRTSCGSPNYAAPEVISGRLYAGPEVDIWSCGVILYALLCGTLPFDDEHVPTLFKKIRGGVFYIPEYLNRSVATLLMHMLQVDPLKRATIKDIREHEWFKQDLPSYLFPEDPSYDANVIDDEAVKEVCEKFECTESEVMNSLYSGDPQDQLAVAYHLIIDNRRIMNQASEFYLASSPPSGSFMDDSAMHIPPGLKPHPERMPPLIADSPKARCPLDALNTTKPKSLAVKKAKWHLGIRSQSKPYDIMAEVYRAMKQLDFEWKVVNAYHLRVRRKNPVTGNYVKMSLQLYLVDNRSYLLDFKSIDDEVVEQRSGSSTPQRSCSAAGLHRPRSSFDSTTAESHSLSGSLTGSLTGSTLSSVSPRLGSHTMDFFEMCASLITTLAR
T1 sequence (Q9Y478 whole entry partner): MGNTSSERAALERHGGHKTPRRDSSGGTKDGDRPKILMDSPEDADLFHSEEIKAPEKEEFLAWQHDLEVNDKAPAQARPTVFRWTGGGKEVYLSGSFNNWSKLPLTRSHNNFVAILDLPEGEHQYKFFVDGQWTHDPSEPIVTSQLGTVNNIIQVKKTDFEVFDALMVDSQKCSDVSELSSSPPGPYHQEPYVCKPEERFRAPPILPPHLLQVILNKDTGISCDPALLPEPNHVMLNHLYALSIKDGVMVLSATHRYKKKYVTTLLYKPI
T1 sequence (P54619 whole entry partner): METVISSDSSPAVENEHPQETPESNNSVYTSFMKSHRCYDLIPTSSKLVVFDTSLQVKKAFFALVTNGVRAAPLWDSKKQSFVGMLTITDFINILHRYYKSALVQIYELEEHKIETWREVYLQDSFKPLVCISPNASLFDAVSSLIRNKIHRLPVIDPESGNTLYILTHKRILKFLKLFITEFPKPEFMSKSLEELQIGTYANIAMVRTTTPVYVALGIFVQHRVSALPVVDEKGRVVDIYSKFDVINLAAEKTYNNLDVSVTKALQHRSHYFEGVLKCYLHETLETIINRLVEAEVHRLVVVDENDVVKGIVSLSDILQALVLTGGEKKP

In turn, `CN(C(=O)CN1CCOCC1)c1ccc2sc3c(-c4cccc5c(=O)cc(N6CC7CCC(C6)O7)oc45)cccc3c2c1` [NU5455] showed an inhibition at 1 µM of 2.6%.

In general, inhibition refers to the share of the control response that was lost under treatment. A low value points to a response near the control.
